Source: ChEMBL document CHEMBL1275540, “Plasmid-mediated quinolone resistance determinants qnrA, qnrB, and qnrS among clinical isolates of Enterobacteriaceae in a Korean hospital” (2008)
In brackets after ≈: the same amount, converted by molar mass.

Key:
Assay type in all cases: functional
Escherichia coli [1] = assay: Antibacterial activity against rifampin resistant Escherichia coli RG488 receiving Klebsiella pneumoniae qnrS1 by agar dilution method
Escherichia coli [2] = assay: Antibacterial activity against Escherichia coli RG488 by agar dilution method
Escherichia coli [3] = assay: Antibacterial activity against Escherichia coli J53 by agar dilution method
Escherichia coli [4] = assay: Antibacterial activity against rifampin resistant Escherichia coli RG488 receiving Klebsiella pneumoniae qnrB4 by agar dilution method
Escherichia coli [5] = assay: Antibacterial activity against rifampin resistant Escherichia coli RG488 receiving Enterobacter cloacae qnrB4 by agar dilution method
Escherichia coli [6] = assay: Antibacterial activity against rifampin resistant Escherichia coli RG488 receiving Klebsiella pneumoniae qnrB6 by agar dilution method
Escherichia coli [7] = assay: Antibacterial activity against rifampin resistant Escherichia coli RG488 receiving Escherichia coli qnrB4 by agar dilution method

Row | SMILES | MIC90 (Escherichia coli [1]) [µg/mL] | MIC90 (Escherichia coli [2]) [µg/mL] | MIC90 (Escherichia coli [3]) [µg/mL] | MIC90 (Escherichia coli [4]) [µg/mL] | MIC90 (Escherichia coli [5]) [µg/mL] | MIC90 (Escherichia coli [6]) [µg/mL] | MIC90 (Escherichia coli [7]) [µg/mL]
1 | O=C(O)c1cn(C2CC2)c2cc(N3CCNCC3)c(F)cc2c1=O [CIPROFLOXACIN] | 1 (≈ 3.02 µM) | 0.03 (≈ 0.0905 µM) | 0.015 (≈ 0.0453 µM) | 0.125 (≈ 0.377 µM) | – | – | –
2 | CCn1cc(C(=O)O)c(=O)c2ccc(C)nc21 [NALIDIXIC ACID] | 32 (≈ 138 µM) | 4 (≈ 17.2 µM) | 4 (≈ 17.2 µM) | 8 (≈ 34.4 µM) | 8 (≈ 34.4 µM) | 16 (≈ 68.9 µM) | 16 (≈ 68.9 µM)
